In patent US20260200942A1, “PARP7 INHIBITORS AND THEIR APPLICATIONS” (CHONGQING PHARSCIN INNOBIO CO., LTD., priority 2023, published 2026):
pIC50: −log10 of the molar value.

How the values were obtained:
PARP7 = target: T1, PARP7 (Homo sapiens, UniProt Q7Z3E1); assay: PARP7 inhibitory activity assay (histone-coated 384-well plate, chemiluminescence); type: biochemical
T1 construct: purchased BPS 80527
T1 sequence (Q7Z3E1 1-657): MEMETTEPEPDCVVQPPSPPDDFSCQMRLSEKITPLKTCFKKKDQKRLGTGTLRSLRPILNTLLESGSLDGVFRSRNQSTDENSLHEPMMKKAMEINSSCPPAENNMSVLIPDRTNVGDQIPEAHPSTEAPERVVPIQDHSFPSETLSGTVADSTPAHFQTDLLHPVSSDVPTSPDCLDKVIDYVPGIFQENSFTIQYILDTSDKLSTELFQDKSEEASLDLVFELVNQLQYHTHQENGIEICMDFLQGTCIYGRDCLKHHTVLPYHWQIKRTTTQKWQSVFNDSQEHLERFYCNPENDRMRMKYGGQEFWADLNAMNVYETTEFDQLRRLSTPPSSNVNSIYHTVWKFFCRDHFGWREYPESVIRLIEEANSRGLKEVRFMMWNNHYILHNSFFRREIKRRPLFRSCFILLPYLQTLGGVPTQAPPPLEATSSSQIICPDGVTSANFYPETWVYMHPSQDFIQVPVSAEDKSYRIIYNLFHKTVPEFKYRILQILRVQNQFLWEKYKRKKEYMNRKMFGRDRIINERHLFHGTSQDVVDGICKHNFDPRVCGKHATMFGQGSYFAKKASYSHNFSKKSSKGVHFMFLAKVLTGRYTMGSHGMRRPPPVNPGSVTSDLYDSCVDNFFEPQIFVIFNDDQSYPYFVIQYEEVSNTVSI
Excerpt: Inhibition rate (%) calculation formula: […]

PARP2 = target: T2, PARP2 (Homo sapiens, UniProt Q9UGN5); assay: PARP2 inhibitory activity assay (BPS PARP2 Chemiluminescent Activity Assay Kit); type: biochemical
T2 construct: purchased BPS Bioscience
T2 sequence (Q9UGN5 whole entry): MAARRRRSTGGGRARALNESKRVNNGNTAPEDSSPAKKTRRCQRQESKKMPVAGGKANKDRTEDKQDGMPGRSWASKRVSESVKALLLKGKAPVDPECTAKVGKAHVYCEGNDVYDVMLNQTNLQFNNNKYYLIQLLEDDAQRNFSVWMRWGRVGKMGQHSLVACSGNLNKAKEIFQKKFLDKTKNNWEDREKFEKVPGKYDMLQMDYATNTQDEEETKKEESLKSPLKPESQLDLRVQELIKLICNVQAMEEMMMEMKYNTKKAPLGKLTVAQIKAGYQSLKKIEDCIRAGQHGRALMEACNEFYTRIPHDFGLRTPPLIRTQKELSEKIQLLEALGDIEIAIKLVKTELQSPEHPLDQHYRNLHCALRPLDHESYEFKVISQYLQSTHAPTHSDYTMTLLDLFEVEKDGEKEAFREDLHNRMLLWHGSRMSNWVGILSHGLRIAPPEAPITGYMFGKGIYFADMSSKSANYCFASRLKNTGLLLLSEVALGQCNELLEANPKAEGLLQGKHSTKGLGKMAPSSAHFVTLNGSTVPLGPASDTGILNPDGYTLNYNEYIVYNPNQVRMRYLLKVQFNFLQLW
Excerpt: The PARP2 enzyme activity assay method used in the present disclosure employs reagents from the PARP2 Chemiluminescent Activity Assay Kit from BPS Bioscience, USA. […] The test results are shown in Table 1. /” indicates not tested.

[1] = Liver microsomal stability study, human; type: in vitro ADME; conditions: Human liver microsomes
Method: (§1) The above compounds were diluted to a 1.5 μM intermediate working solution with 0.1 M potassium phosphate buffer containing 0.75 mg/mL liver microsomes, and then 30 μL of the intermediate working solution was dispensed into reaction plates for different time points (0, 5, 15, 30, 45, 60 min). 150 μL of methanol solution containing internal standard was added to the 0 min plate wells. For the other time points (5, 15, 30, 45, 60 min), the sample plates were pre-incubated at 37° C. for 5 min, after which the reaction was initiated with 15 μL of 6 mM NADPH solution and timing was started. 15 μL of 6 mM NADPH solution was added to the 0 min samples to balance the system. At 5 min, 15 min, 30 min, 45 min, and 60 min, respectively, 150 μL of methanol solution containing internal standard was added to the reaction wells to terminate the reaction. After the reaction was complete, the plates were shaken on a shaker at 600 rpm for 10 min, then centrifuged at 4000 rpm for 15 min. 80 μL of supernatant from each well was transferred to a 96-well sample plate containing 150 μL of ultrapure water, mixed, and then analyzed by LC/MS to calculate T1/2.

[2] = Liver microsomal stability study, rat; type: in vitro ADME; conditions: Rat liver microsomes
Method: as §1

[3] = Liver microsomal stability study, mouse; type: in vitro ADME; conditions: Mouse liver microsomes
Method: as §1

| pIC50 (PARP7) | pIC50 (PARP2) | Compound | half-life at 1 µM [1] [min] | half-life at 1 µM [2] [min] | half-life at 1 µM [3] [min] |
| --- | --- | --- | --- | --- | --- |
| > 8.00 | 7.00 to 8.00 | CC(C)(N[C@H]1C[C@H](C(=O)N2CCN(c3ncc(C(F)(F)F)cn3)CC2)C1)c1cc(C(F)(F)F)c(=O)[nH]n1 [Embodiment 48] |  |  |  |
| > 8.00 | 7.00 to 8.00 | NC(=O)c1cc(C(F)(F)F)cnc1N1CCN(C(=O)[C@H]2C[C@H](NCc3cc(C(F)(F)F)c(=O)[nH]n3)C2)CC1 [Embodiment 62, 2-(4-((1R,3R)-3-(((6-oxo-5-(trifluoromethyl)-1,6-dihydropyridazin-3-yl)methyl)amino)cyclobutane-1-carbonyl)piperazin-1-yl)-5-(trifluoromethyl)nicotinamide] |  |  |  |
| 7.00 to 8.00 |  | O=C(C1CN(Cc2c[nH]c(=O)c(C(F)(F)F)c2)C1)N1CCN(c2ncc(C(F)(F)F)cn2)CC1 [Embodiment 14] | > 60 | > 60 | > 60 |
| > 8.00 | 7.00 to 8.00 | COc1cc(C(F)(F)F)cnc1N1CCN(C(=O)C2CN(Cc3cc(C(F)(F)F)c(=O)[nH]n3)C2)CC1 [Embodiment 46, 6-((3-(4-(3-methoxy-5-(trifluoromethyl)pyridin-2-yl)piperazine-1-carbonyl)azetidin-1-yl)methyl)-4-(trifluoromethyl)pyridazin-3(2H)-one] |  |  |  |
|  | 6.00 to 7.00 | Cn1ccc2c(C(F)(F)F)cnc(N3CCN(C(=O)[C@H]4C[C@H](NC(C)(C)c5cc(C(F)(F)F)c(=O)[nH]n5)C4)CC3)c21 [Embodiment 65, 6-(2-(((1R,3R)-3-(4-(1-methyl-4-(trifluoromethyl)-1H-pyrrolo[2,3-c]pyridin-7-yl)piperazine-1-carbonyl)cyclobutyl)amino)propan-2-yl)-4-(trifluoromethyl)pyridazin-3(2H)-one] |  |  |  |
| > 8.00 | 6.00 to 7.00 | CC(C)(N[C@H]1C[C@H](C(=O)N2CCN(c3ncc(C(F)(F)F)c4cc[nH]c34)CC2)C1)c1cc(C(F)(F)F)c(=O)[nH]n1 [Embodiment 64, 4-(trifluoromethyl)-6-(2-(((1R,3R)-3-(4-(4-(trifluoromethyl)-1H-pyrrolo[2,3-c]pyridin-7-yl)piperazine-1-carbonyl)cyclobutyl)amino)propan-2-yl)pyridazin-3(2H)-one] |  |  |  |
| 7.00 to 8.00 |  | O=c1[nH]cc(CN[C@H]2C[C@H](C(=O)N3CCN(c4ncc(C(F)(F)F)cn4)CC3)C2)cc1C(F)(F)F [Embodiment 13] | 30 to 60 | > 60 | > 60 |
| > 8.00 | 6.00 to 7.00 | CNC(=O)c1cc(C(F)(F)F)cnc1N1CCN(C(=O)[C@H]2C[C@H](NC(C)(C)c3cc(C(F)(F)F)c(=O)[nH]n3)C2)CC1 [Embodiment 67, N-methyl-2-(4-((1R,3R)-3-((2-(6-oxo-5-(trifluoromethyl)-1,6-dihydropyridazin-3-yl)propan-2-yl)amino)cyclobutane-1-carbonyl)piperazin-1-yl)-5-(trifluoromethyl)nicotinamide] |  |  |  |
| > 8.00 | 6.00 to 7.00 | CC(C)(N[C@H]1C[C@H](C(=O)N2CCN(c3ncc(C(F)(F)F)cc3C(N)=O)CC2)C1)c1cc(C(F)(F)F)c(=O)[nH]n1 [Embodiment 60, 2-(4-((1R,3R)-3-((2-(6-oxo-5-(trifluoromethyl)-1,6-dihydropyridazin-3-yl)propan-2-yl)amino)cyclobutane-1-carbonyl)piperazin-1-yl)-5-(trifluoromethyl)nicotinamide] |  |  |  |
| 5.00 to 6.00 |  | O=C([C@H]1CC[C@H](NCc2c[nH]c(=O)c(C(F)(F)F)c2)C1)N1C2CCC1CN(c1ncc(C(F)(F)F)cn1)C2 [Embodiment 1] |  |  |  |
| 7.00 to 8.00 |  | O=c1[nH]nc(CN[C@H]2C[C@H](C(=O)N3CCN4c5ncc(C(F)(F)F)cc5OCC[C@@H]4C3)C2)cc1C(F)(F)F [Embodiment 38] |  |  |  |
| 7.00 to 8.00 |  | C[C@@H](CN1CC[C@@H](C(=O)N2C3CCC2CN(c2ncc(C(F)(F)F)cn2)C3)C1)Nc1cn[nH]c(=O)c1C(F)(F)F [Embodiment 2] |  |  |  |
| 6.00 to 7.00 |  | O=C(N1CCN(c2ncc(C(F)(F)F)cn2)CC1)C12CC(NCc3c[nH]c(=O)c(C(F)(F)F)c3)(C1)C2 [Embodiment 25] |  |  |  |
| 5.00 to 6.00 |  | O=C([C@H]1CCN(Cc2c[nH]c(=O)c(C(F)(F)F)c2)C1)N1C2CCC1CN(c1ncc(C(F)(F)F)cn1)C2 [Embodiment 9, 3-(trifluoromethyl)-5-(((3S)-3-(3-(5-(trifluoromethyl)pyrimidin-2-yl)-3,8-diazabicyclo[3.2.1]octane-8-carbonyl)pyrrolidin-1-yl)methyl)pyridin-2(1H)-one] |  |  |  |
| 7.00 to 8.00 |  | COc1cc(C(F)(F)F)cnc1N1CCN(C(=O)[C@H]2C[C@H](NC(C)(C)c3cc(C(F)(F)F)c(=O)[nH]n3)C2)CC1 [Embodiment 59] |  |  |  |
| 5.00 to 6.00 |  | COc1nnc(CN(C)[C@H]2C[C@H](C(=O)N3CCN(c4ncc(C(F)(F)F)cn4)CC3)C2)cc1C(F)(F)F [Embodiment 33, ((1R,3R)-3-(((6-methoxy-5-(trifluoromethyl)pyridazin-3-yl)methyl)(methyl)amino)cyclobutyl)(4-(5-(trifluoromethyl)pyrimidin-2-yl)piperazin-1-yl)methanone] |  |  |  |
| 7.00 to 8.00 |  | O=C([C@@H]1CCN(Cc2c[nH]c(=O)c(C(F)(F)F)c2)C1)N1CCN(c2ncc(C(F)(F)F)cn2)CC1 [Embodiment 24] |  |  |  |
| 6.00 to 7.00 |  | O=C([C@H]1CCN(Cc2cc(C(F)(F)F)c(=O)[nH]n2)C1)N1C2CCC1CN(c1ncc(C(F)(F)F)cn1)C2 [Embodiment 11, 4-(trifluoromethyl)-6-(((3S)-3-(3-(5-(trifluoromethyl)pyrimidin-2-yl)-3,8-diazabicyclo[3.2.1]octane-8-carbonyl)pyrrolidin-1-yl)methyl)pyridazin-3(2H)-one] |  |  |  |

| Compound | pIC50 (PARP7) | pIC50 (PARP2) | half-life at 1 µM [1] [min] | half-life at 1 µM [2] [min] | half-life at 1 µM [3] [min] |
| --- | --- | --- | --- | --- | --- |
| O=c1[nH]nc(CN[C@H]2C[C@H](C(=O)N3C4CCC3CN(c3ncc(C(F)(F)F)cn3)C4)C2)cc1C(F)(F)F [Embodiment 3] | 7.00 to 8.00 |  | > 60 | > 60 | > 60 |
| O=c1[nH]cc(CN[C@H]2C[C@H](C(=O)N3C4CCC3CN(c3ncc(C(F)(F)F)cn3)C4)C2)cc1C(F)(F)F [Embodiment 4] | 7.00 to 8.00 |  | 30 to 60 | > 60 | > 60 |
